From patent US10945932B2, “Prebiotic oral care compositions containing carboxylic acids” (COLGATE-PALMOLIVE COMPANY, priority 2013, dated 2021)

How the values were obtained:
Type in all cases: cell-based
[1] = system: beneficial oral bacteria and pathogenic oral bacteria; test: Metabolic activity, prebiotic effect over the whole panel; conditions: 48 hrs; threshold value of 2
Protocol: (§1) The extent of metabolic activity of the tested bacteria in the presence of the above-mentioned acids after 24 hours and 48 hours was investigated through a high throughput phenotype microarray system (PM) for microbial cells (Biolog Inc.). Each PM can contain up to 95 different biochemical compounds (e.g. organic acids) that may act as substrates for bacteria as well as one negative control, not containing the substrates. Microarray plates were used in which the different wells of each plate were pre-loaded (by the manufacturer, Biolog Inc.) with different organic acids to be tested. Each bacterial species was tested using a separate microarray plate. Thus, a single bacterial species was tested with a variety of organic acids on each particular plate. The microarrays are based on redox technology, using cell respiration as a universal reporter. […] The observation of this color change indicates which of the substrates improve the metabolic activity and health of the cells.
(§2) Each bacterial species was collected from blood agar plates (incubated for 48 hours anaerobically at 37° C.) and transferred to an IF-0 Base inoculation fluid (Biolog Inc.), which is a nutritionally poor medium. […] A 1:5 dilution of this suspension was prepared by mixing 3 mL of the 42% transmittance cell suspension with 15 mL of an inoculation fluid (which inoculation fluid was formed by mixing 11.6 mL sterile water, 62.5 mL IF-0 base inoculation fluid and 0.9 mL of the tetrazolium dye “Biolog Redox Dye mix D”), resulting in a final cell density which was equal to 85% transmittance using a BioRad SmartSpec 3000 Photometer. For each of the acids tested, the microarray plate (obtained from the supplier (Biolog Inc.) with acid already present in the relevant wells in powder form) was directly inoculated with 100 μL/well of this 85% transmittance cell suspension.
(§3) All plates were incubated in an anaerobic atmosphere at 37° C. Color changes were measured spectrophotometrically at 492 nm (Thermo Scientific Multiskan Ascent) at 24 hrs and 48 hrs using the same plate at both time points.
(§4) The controls were also carried out three times, as above.

Streptococcus gordonii = test: Metabolic activity, Biolog phenotype microarray; conditions: S gordonii
Protocol: as §1, §2, §3, §4

Actinomyces naeslundii = test: Metabolic activity, Biolog phenotype microarray; conditions: A naeslundii
Protocol: as §1, §2, §3, §4

Streptococcus sanguinis = test: Metabolic activity, Biolog phenotype microarray; conditions: S sanguinis
Protocol: as §1, §2, §3, §4

Streptococcus mitis = test: Metabolic activity, Biolog phenotype microarray; conditions: S mitis
Protocol: as §1, §2, §3, §4

Streptococcus mutans = test: Metabolic activity, Biolog phenotype microarray; conditions: S mutans
Protocol: as §1, §2, §3, §4

Streptococcus sobrinus = test: Metabolic activity, Biolog phenotype microarray; conditions: S sobrinus
Protocol: as §1, §2, §3, §4

Capnocytophaga sputigena = test: Metabolic activity, Biolog phenotype microarray; conditions: C sputigena
Protocol: as §1, §2, §3, §4

Fusobacterium nucleatum = test: Metabolic activity, Biolog phenotype microarray; conditions: F nucleatum
Protocol: as §1, §2, §3, §4

Tannerella forsythia = test: Metabolic activity, Biolog phenotype microarray; conditions: T forsythia
Protocol: as §1, §2, §3, §4

Prevotella intermedia = test: Metabolic activity, Biolog phenotype microarray; conditions: P intermedia
Protocol: as §1, §2, §3, §4

Veillonella parvula = test: Metabolic activity, Biolog phenotype microarray; conditions: V parvula
Protocol: as §1, §2, §3, §4

[2] = system: Aggregatibacter actinomycetemcomitans; test: Metabolic activity, Biolog phenotype microarray; conditions: A actinomycetemcomitans
Protocol: as §1, §2, §3, §4

Actinomyces viscosus = test: Metabolic activity, Biolog phenotype microarray; conditions: A viscosus
Protocol: as §1, §2, §3, §4

Streptococcus salivarius = test: Metabolic activity, Biolog phenotype microarray; conditions: S salivarius
Protocol: as §1, §2, §3, §4

Porphyromonas gingivalis = test: Metabolic activity, Biolog phenotype microarray; conditions: P gingivalis
Protocol: as §1, §2, §3, §4

Compound	prebiotic effect (metabolic activity) [1]	metabolic activity, OD at 492 nm divided by OD of control (control = 1) (Streptococcus gordonii; 24 hrs)	metabolic activity, OD at 492 nm divided by OD of control (control = 1) (Streptococcus gordonii; 48 hrs)	metabolic activity, OD at 492 nm divided by OD of control (control = 1) (Actinomyces naeslundii; 24 hrs)	metabolic activity, OD at 492 nm divided by OD of control (control = 1) (Actinomyces naeslundii; 48 hrs)	metabolic activity, OD at 492 nm divided by OD of control (control = 1) (Streptococcus sanguinis; 24 hrs)	metabolic activity, OD at 492 nm divided by OD of control (control = 1) (Streptococcus sanguinis; 48 hrs)	metabolic activity, OD at 492 nm divided by OD of control (control = 1) (Streptococcus mitis; 24 hrs)	metabolic activity, OD at 492 nm divided by OD of control (control = 1) (Streptococcus mitis; 48 hrs)	metabolic activity, OD at 492 nm divided by OD of control (control = 1) (Streptococcus mutans; 24 hrs)	metabolic activity, OD at 492 nm divided by OD of control (control = 1) (Streptococcus mutans; 48 hrs)	metabolic activity, OD at 492 nm divided by OD of control (control = 1) (Streptococcus sobrinus; 24 hrs)	metabolic activity, OD at 492 nm divided by OD of control (control = 1) (Streptococcus sobrinus; 48 hrs)	metabolic activity, OD at 492 nm divided by OD of control (control = 1) (Capnocytophaga sputigena; 24 hrs)	metabolic activity, OD at 492 nm divided by OD of control (control = 1) (Capnocytophaga sputigena; 48 hrs)	metabolic activity, OD at 492 nm divided by OD of control (control = 1) (Fusobacterium nucleatum; 24 hrs)	metabolic activity, OD at 492 nm divided by OD of control (control = 1) (Fusobacterium nucleatum; 48 hrs)	metabolic activity, OD at 492 nm divided by OD of control (control = 1) (Tannerella forsythia; 24 hrs)	metabolic activity, OD at 492 nm divided by OD of control (control = 1) (Tannerella forsythia; 48 hrs)	metabolic activity, OD at 492 nm divided by OD of control (control = 1) (Prevotella intermedia; 24 hrs)	further results
CC(=O)O [Acetic acid, acetic acid]	exhibited prebiotic effects																				
O=C(O)CC(O)(CC(=O)O)C(=O)O [Citric acid, citric acid]	exhibited prebiotic effects	0.9010	0.7481	0.8551	0.7965	0.8938	0.8704	1.0814	0.8953	1.1156	1.0700	0.9828	0.8769	0.5992	0.8818	0.7626	0.6603	0.9320	0.8510	0.9626	metabolic activity, OD at 492 nm divided by OD of control (control = 1) (Prevotella intermedia; 48 hrs): 0.8872; metabolic activity, OD at 492 nm divided by OD of control (control = 1) (Veillonella parvula; 24 hrs): 1.2832; metabolic activity, OD at 492 nm divided by OD of control (control = 1) (Veillonella parvula; 48 hrs): 2.0488; metabolic activity, OD at 492 nm divided by OD of control (control = 1) ([2]; 24 hrs): 1.3098; metabolic activity, OD at 492 nm divided by OD of control (control = 1) ([2]; 48 hrs): 1.4736; metabolic activity, OD at 492 nm divided by OD of control (control = 1) (Actinomyces viscosus; 24 hrs): 0.9333; metabolic activity, OD at 492 nm divided by OD of control (control = 1) (Actinomyces viscosus; 48 hrs): 0.9052; metabolic activity, OD at 492 nm divided by OD of control (control = 1) (Streptococcus salivarius; 24 hrs): 0.9935; metabolic activity, OD at 492 nm divided by OD of control (control = 1) (Streptococcus salivarius; 48 hrs): 0.9148; metabolic activity, OD at 492 nm divided by OD of control (control = 1) (Porphyromonas gingivalis; 24 hrs): 0.8443; metabolic activity, OD at 492 nm divided by OD of control (control = 1) (Porphyromonas gingivalis; 48 hrs): 0.8692
COC(=O)CCC(=O)O [Mono methyl succinate, mono methyl succinate]		0.8102	0.7556	0.8880	0.8882	0.8806	0.8453	1.0231	0.9293	0.9482	0.8864	0.9731	0.9118	0.8328	0.9842	0.8349	0.7615	0.8922	0.8775	1.0197	metabolic activity, OD at 492 nm divided by OD of control (control = 1) (Prevotella intermedia; 48 hrs): 1.0603; metabolic activity, OD at 492 nm divided by OD of control (control = 1) (Veillonella parvula; 24 hrs): 2.0008; metabolic activity, OD at 492 nm divided by OD of control (control = 1) (Veillonella parvula; 48 hrs): 2.0023; metabolic activity, OD at 492 nm divided by OD of control (control = 1) ([2]; 24 hrs): 0.9321; metabolic activity, OD at 492 nm divided by OD of control (control = 1) ([2]; 48 hrs): 1.0787; metabolic activity, OD at 492 nm divided by OD of control (control = 1) (Actinomyces viscosus; 24 hrs): 0.9911; metabolic activity, OD at 492 nm divided by OD of control (control = 1) (Actinomyces viscosus; 48 hrs): 1.0314; metabolic activity, OD at 492 nm divided by OD of control (control = 1) (Streptococcus salivarius; 24 hrs): 0.9553; metabolic activity, OD at 492 nm divided by OD of control (control = 1) (Streptococcus salivarius; 48 hrs): 0.8641; metabolic activity, OD at 492 nm divided by OD of control (control = 1) (Porphyromonas gingivalis; 24 hrs): 0.7502; metabolic activity, OD at 492 nm divided by OD of control (control = 1) (Porphyromonas gingivalis; 48 hrs): 0.6747
